# Experimental data from the NIST ThermoML archive (doi:10.1016/j.jct.2018.02.019).
# Numbers after ± are expanded uncertainties.
# Assay: mn = molality of the nth substance listed, in mol/kg
# Conditions: 298.15 K, Ring tensiometer
structure (smiles),measurement,setting,value
C[C@H](CCC(=O)NCCS(=O)(=O)[O-])[C@H]1CC[C@H]2[C@@H]3[C@H](O)C[C@@H]4C[C@H](O)CC[C@]4(C)[C@H]3C[C@H](O)[C@]12C.[Na+] [sodium taurocholate] + O,surface tension liquid-gas,m1 = 0.00062,53.39 ± 2.1 mN/m
same,surface tension liquid-gas,m1 = 0.00093,50.95 ± 2.1 mN/m
same,surface tension liquid-gas,m1 = 0.00149,47.64 ± 2.1 mN/m
same,surface tension liquid-gas,m1 = 0.00208,45.58 ± 2.1 mN/m
same,surface tension liquid-gas,m1 = 0.00263,44.18 ± 2.1 mN/m
same,surface tension liquid-gas,m1 = 0.00313,43 ± 2.1 mN/m
same,surface tension liquid-gas,m1 = 0.00354,42.08 ± 2.1 mN/m
same,surface tension liquid-gas,m1 = 0.00392,41.48 ± 2.1 mN/m
same,surface tension liquid-gas,m1 = 0.00455,40.95 ± 2.1 mN/m
same,surface tension liquid-gas,m1 = 0.00489,40.5 ± 2.1 mN/m
same,surface tension liquid-gas,m1 = 0.00556,40.48 ± 2.1 mN/m
same,surface tension liquid-gas,m1 = 0.0062,40.51 ± 2.1 mN/m
same,surface tension liquid-gas,m1 = 0.00714,40.45 ± 2.1 mN/m
same,surface tension liquid-gas,m1 = 0.00804,40.5 ± 2.1 mN/m
